From patent US7056679B2, “Target specific screening and its use for identifying target binders” (Antyra, Inc., priority 2001, dated 2006)
No end group written: not given here.

Legend:
[1] = test system: lactate dehydrogenase (LDH); experiment: ELISA analysis of phage on LDH (irrelevant, non-specific target); assay type: binding; settings: peptide binding to LDH polypeptide (non-specific binding); phage ELISA units read at 405 nm
Method in brief: (§1)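 Phage from picked clones (M13KO7 helper) bound 2 hr at room temperature to wells coated overnight at 4 °C with 500 ng/well anti-ETAG antibody or LDH, milk-blocked. Detection with HRP-anti-M13 (1:3000) and ABTS at 405 nm; positive when A405 ≥2-fold over background.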

DGI-2 = biological target: T1, DGI-2 (Homo sapiens, UniProt Q15004); experiment: ELISA analysis of phage on DGI-2 polypeptide (specific binding); settings: for DGI-2 (OD): binding to DGI-2 polypeptide (specific binding), phage ELISA units read at 405 nm; for DGI-2/LDH (OD): ratio of specific binding to non-specific binding
T1 construct: encompassed the entire DGI-2 open reading frame (ORF); His-tag of vector pIVEX2.3-MCS (inferred from the vector and from the reverse primer lacking a stop codon); made in house; host or cells: cell-free in vitro translation (Rapid Translation System RTS, Roche; E. coli lysate)
T1 sequence (Q15004 1-111): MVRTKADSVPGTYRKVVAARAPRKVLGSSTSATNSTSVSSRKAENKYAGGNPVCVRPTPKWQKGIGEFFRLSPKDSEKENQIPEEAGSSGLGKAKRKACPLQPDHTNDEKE
Method in brief: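 Recombinant DGI-2 from in vitro translation, LDH (non-specific) and controls were coated at 500 ng/well and blocked with 2% milk-PBS. Phage from individual clones bound for 2 hr at room temperature, then anti-M13-HRP with ABTS was read at 405 nm; a clone counted as positive at ≥2-fold over background.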

E-tag antibody = experiment: ELISA analysis of phage on antibody raised against ETAG (positive control); settings: peptide binding to E-tag antibody; phage ELISA units read at 405 nm
Method in brief: as §1

Row | Substance | LDH (OD) [1] | DGI-2 (OD) (DGI-2) | DGI-2/LDH (OD) (DGI-2) | ETAG (OD) (E-tag antibody)
1 | FRVALLSVSAGPCEGSGNT (DGI-2-20F-PP-H7; listed as Escherichia coli) | 0.8 OD | 1.8 OD | 2.1 | 3.7 OD
2 | TCWIHRGLNVVRYSVNFGVRDARLTTQGMAWFPPGCGQGCV (TCWHRGLNVVRYSVNFGVRDARLTTQGMAWFPPGCGQGCV; DGI-2-40F-4-E62; listed as Escherichia coli) | 1.0 OD | 4.6 OD | 4.5 | 14.8 OD
3 | VTGTRFRGFAVACVRMGTWH (DGI-2-20F-PP-F2; listed as Escherichia coli) | 1.0 OD | 2.4 OD | 2.5 | 1.9 OD
4 | WRARSSGYLFALTPNFGVPHIPSSALRRMH.GLMARDLRPV [DGI-2-40F-3-C10] | 0.9 OD | 1.1 OD | 1.3 | 7.7 OD
5 | GWSDFVATGSWSGQVSAALN (DGI-2-20R-4-F120; listed as Escherichia coli) | 1.1 OD | 13.6 OD | 12.2 | 16.5 OD
6 | VCSGGKGTWLEIPDRVRSST (DGI-2-20F-PP-A22; listed as Escherichia coli) | 1.0 OD | 3.3 OD | 3.1 | 44.1 OD
7 | GQISLAGVAVCSSERMLLAFSSRVFLPGLKVPVTTSQRGS (DGI-2-40F-3-A8; listed as Escherichia coli) | 0.8 OD | 0.8 OD | 1.1 | 1.5 OD
8 | RGVNSDMPRLYICRADGQGQ (DGI-2-20F-PP-H6; listed as Escherichia coli) | 0.8 OD | 1.6 OD | 1.9 | 18.9 OD
9 | VSGVPDGSMRAAQLASGYWC (DGI-2-20F-PP-G2; listed as Escherichia coli) | 1.1 OD | 2.4 OD | 2.1 | 5.6 OD
10 | SLFERSARSRYHGSPDCNGS (DGI-2-20F-PP-A3; listed as Escherichia coli) | 1.2 OD | 2.8 OD | 2.4 | 12.9 OD
11 | V#CR#LCRLCRFSMRCGGLSLVLGSAAAFFCEVFVGFCV (VCRLCRLCRFSMRCGGLSLVLGSAAAFFCEVFVGFCV; not fully specified (residues 1, 3); cysteine pairing not given here; also: TAA stop codons (#) after V1 and after R3; listed as Escherichia coli) [DGI-2-40F-4-E1130] | 0.9 OD | 2.9 OD | 3.2 | 8.3 OD
12 | WAASCFWGHVALGCGRNGQG (DGI-2-20R-3-A11; listed as Escherichia coli) | 1.1 OD | 6.2 OD | 5.7 | 14.7 OD
13 | HGTRLRGVDYVMTWAGWQGYSSRKHVQQAVAGSSPGSDEL (DGI-2-40F-3-B1; listed as Escherichia coli) | 0.7 OD | 0.8 OD | 1.2 | 6.3 OD
14 | DDIVCLFQFCTMFCWLDMGW (DDIVCLFQFCIMFCWLDMGW; DGI-2-20F-PP-H3; listed as Escherichia coli) | 1.8 OD | 2.3 OD | 1.3 | 3.7 OD
15 | DRSRAPLCADKSGRWQRYRR (DGI-2-20F-PP-C10; listed as Escherichia coli) | 0.9 OD | 2.7 OD | 3.1 | 8.6 OD
16 | PKDGAAFKGSDFIQGGQTVMERAPALWWRDGGGQWEAPST (DGI-2-40F-3-B72; listed as Escherichia coli) | 0.7 OD | 1.0 OD | 1.3 | 10.4 OD
17 | RRILPWSFPGCGRMC (DGI-2-20R-3-A10; listed as Escherichia coli) [DGJ-2-20R-3-A10] | 1.1 OD | 6.2 OD | 5.9 | 16.4 OD
18 | WVVALRRIRLGLRRGVECLL (DGI-2-20F-PP-D5; listed as Escherichia coli) | 1.2 OD | 2.7 OD | 2.3 | 33.6 OD
19 | EVFVSVWVFRFRVMPVTPGGT (DGI-2-20F-PP-E6; listed as Escherichia coli) | 1.2 OD | 3.0 OD | 2.6 | 4.1 OD
20 | MQAASTLSTYMGAIRMGYPILHWDRGGVQRVDPGLYRGRV (DGI-2-40F-3-B10; listed as Escherichia coli) | 1.0 OD | 1.3 OD | 1.4 | 4.8 OD
21 | VGQSSGDARPLANLFVFPFV (DGI-2-20F-PP-F12; listed as Escherichia coli) | 0.9 OD | 2.1 OD | 2.3 | 47.6 OD
22 | EGQRVVFLFGALVAGLCWRDR (DGI-2-20F-PP-F3; listed as Escherichia coli) | 1.1 OD | 2.6 OD | 2.2 | 18.7 OD
23 | RSYPRLCKQKGGVIGRMLPG (DGI-2-20F-PP-B2; listed as Escherichia coli) | 1.1 OD | 3.3 OD | 2.9 | 35.9 OD
24 | GASRVVDVGWRFWGKLWQRS (DGI-2-20F-PP-G5; listed as Escherichia coli) | 1.2 OD | 2.4 OD | 2.0 | 27.7 OD
25 | LFRFSGTGMASLPCVGWHLV (DGI-2-20F-PP-B6; listed as Escherichia coli) | 1.0 OD | 2.5 OD | 2.6 | 37.0 OD
26 | HPWVTNMLVFQRPPPPGFWLSDTTPRQRNGLGQVERPSVD (DGI-2-40F-3-C7; listed as Escherichia coli) | 0.8 OD | 1.2 OD | 1.5 | 8.8 OD
27 | QSNVWVLVGVIMQGVWYQRQHYCVYVMLLSDQVSVLLAVA (DGI-2-40F-3-B6; listed as Escherichia coli) | 0.8 OD | 0.9 OD | 1.2 | 1.8 OD
28 | WWREWVDGSLRGGGGTVLKD (DGI-2-20R-3-A122; listed as Escherichia coli) | 1.0 OD | 9.6 OD | 9.4 | 15.1 OD
29 | GLRACDTYLGFCVGARRIDD (DGI-2-20F-3-B102; listed as Escherichia coli) | 1.0 OD | 2.4 OD | 2.5 | 18.0 OD
30 | VVHTRAWGSWAYGFVLRNRG (DGI-2-20F-PP-F10; listed as Escherichia coli) | 1.3 OD | 3.5 OD | 2.8 | 42.5 OD
